Measured values published in patent US8541167B2 (priority 2004, dated 2013).

Experiments:
[1] = test system: vaccinia, ectromelia or cowpox; conditions: mouse, in vivo; cited from earlier work
[2] = test system: ectromelia virus; set-up: species or system Mice; conditions: mouse, in vivo, ip, 12.5 mg/kg/day
[3] = test system: ECTV; set-up: species or system A/NCr mice; conditions: mouse, in vivo

Nc1ccn(C[C@@H](CO)OCP(=O)(O)O)c(=O)n1 [Cidofovir]
efficacy in protecting mice from a lethal dose [1]: high efficacy
effect of cidofovir during vaccination on level of protection from lethal disease [2]: did not affect the level of protection
protection from death afforded by vaccination in presence vs absence of CDV [3]: no difference observed
